Patent publication US20130266649A1, “NOVEL PHARMACEUTICAL COMPOSITION” (priority 2010, published 2013)
Values joined by “and” are separate entries in the source; they are usually repeats but may differ in a detail not shown here. Identical values can stand only once. “Also recorded” adds a separate entry of the source.

Columns and labels:
[1] = Photostability: light exposure of tablets in Petri dish (ICH Q1B), impurities by HPLC; type: physicochemical
Protocol: Uncoated tablets, 0.5, 1 and 2 mg were exposed to ICH Photostability conditions and tested to provide baseline impurity information for comparison.

[2] = Solubility of Compound B compared with Compound A; type: physicochemical
Source text: Experiments were undertaken to determine the acceptable level of the desolvated Compound B in a pharmaceutical dosage form and the appropriate formulation techniques.

[3] = FTIH study: repeat dose (Day 15) pharmacokinetics of Compound tablets; conditions: human;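 further: subjects with solid tumors in a first-in-human dose-escalation study, single and repeated once-daily oral tablet dosing, some regimens starting with a loading dose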
Source text: (§4) Preliminary PK data was obtained in subjects with solid tumors following single- and repeat-dose oral administration of Compound tablets.
(§5) Additional blood samples were taken pre-dose on Day15 of Cycle 1 and Day 1 of further cycles in Part 2 and Part 3 to assess steady state trough levels of Compound.

[4] = 3 week repeat dose oral toxicokinetic/toxicology study in dogs; conditions: for maximum tolerated dose (MTD): oral; for AUC / Cmax at 3 weeks / Cmax: in vivo, po
Source text: (§1) The pharmacokinetics, absorption, distribution, metabolism and elimination of N-{3-[3-cyclopropyl-5-(2-fluoro-4-iodo-phenylamino)-6,8-dimethyl-2,4,7-trioxo-3,4,6,7-tetrahydro-2H-pyrido[4,3-d]pyrimidin-1-yl]phenyl}acetamide and solvates thereof, including the dimethyl sulfoxide solvate (collectively referred to as “Compound” when used in connection with animal models or human clinical trials), were investigated in a series of in vitro investigations and with in vivo oral (gavage) and IV studies in the Balb/c mouse, Sprague Dawley rat (unless otherwise stated), beagle dog and cynomolgus monkey using unlabeled and [14C]-labeled Compound. A list of these studies is included, along with subsequently obtained human clinical results, in Table 1 below. For in vivo studies, various formulations were used. For oral dosing, solutions or suspensions were administered.
(§2) Dose range studies in rats at doses up to 1 mg/kg/day for 14 days and in dogs at doses up to 0.5 mg/kg/day (or 10 mg/m2/day) for 10 days were conducted prior to the studies.
(§3) In vivo toxicology studies were conducted in Sprague Dawley rats and beagle dogs by oral gavage (Table 3). Studies were conducted using the DMSO solvate of Compound formulated as a suspension in 1.5% hydroxypropylmethylcellulose, 5% mannitol, and 0.2% sodium lauryl sulfate. For all toxicology studies, doses are expressed based on body surface area (mg/m2). In general, to convert mg/m2 doses to mg/kg, divide the doses by 8 for rats and 20 for dogs.

[5] = FTIH study: single dose (Day 1) pharmacokinetics of Compound tablets; type: in vivo; conditions: human; for AUC(0-t): read-out: AUC (0-24); for concentration at 24 h: read-out: C24
Source text: Preliminary PK data was obtained in subjects with solid tumors following single- and repeat-dose oral administration of Compound tablets. The dose-escalation part of the first-time-in-human study (FTIH), involved administration of Compound in one of 3 main dosing regimens:

clinical = conditions: human, plasma
Source text: as §4, §5

[6] = 13 week repeat dose oral toxicokinetic/toxicology study in dogs; conditions: dog; for AUC / Cmax: beagle, in vivo, po
Source text: as §1, §2, §3

[7] = female, Sprague Dawley, rat, 0.125 mg/m2
[8] = female, Sprague Dawley, rat, 0.25 mg/m2
[9] = female, Sprague Dawley, rat, 0.5 mg/m2
[10] = female, Sprague Dawley, rat, 1 mg/m2
[11] = female, Sprague-Dawley, rat, 0.125 mg/m2
[12] = female, Sprague-Dawley, rat, 0.25 mg/m2
[13] = male, Sprague Dawley, rat, 0.125 mg/m2
[14] = male, Sprague Dawley, rat, 0.25 mg/m2
[15] = male, Sprague Dawley, rat, 0.5 mg/m2
[16] = male, Sprague Dawley, rat, 1 mg/m2
[17] = male, Sprague-Dawley, rat, 0.25 mg/m2
[18] = male, Sprague-Dawley, rat, 0.5 mg/m2
[19] = plasma, oral, Day 1, fasting, 6.0 mg loading dose, mean (CV %), N 10
[20] = plasma, oral, Day 1, fasting, 8.0 mg loading dose, mean (CV %), N 7
[21] = plasma, oral, Day 1, fasting, 10.0 mg loading dose, mean (CV %), N 4
[22] = plasma, single oral dose Day 1, fasting, 0.25 mg, individual (N 1)
[23] = plasma, single oral dose Day 1, fasting, 2.0 mg, mean (CV %), N 3
[24] = plasma, single oral dose Day 1, fasting, 2.5 mg, mean (CV %), N 9
[25] = plasma, single oral dose Day 1, fasting, 3.0 mg, mean (CV %), N 12
[26] = plasma, single oral dose Day 1, fasting, 4.0 mg, mean (CV %), N 3

## CC(=O)Nc1cccc(-n2c(=O)n(C3CC3)c(=O)c3c(Nc4ccc(I)cc4F)n(C)c(=O)c(C)c32)c1 [Compound A, N-{3-[3-cyclopropyl-5-(2-fluoro-4-iodo-phenylamino)-6,8-dimethyl-2,4,7-trioxo-3,4,6,7-tetrahydro-2H-pyrido[4,3-d]pyrimidin-1-yl]phenyl}acetamide dimethyl sulfoxide solvate]
[1]
  photo-stability: sensitive to photo-induced degradation

## CC(=O)Nc1cccc(-n2c(=O)n(C3CC3)c(=O)c3c(Nc4ccc(I)cc4F)n(C)c(=O)c(C)c32)c1 [Compound B, N-{3-[3-cyclopropyl-5-(2-fluoro-4-iodo-phenylamino)-6,8-dimethyl-2,4,7-trioxo-3,4,6,7-tetrahydro-2H-pyrido[4,3-d]pyrimidin-1-yl]phenyl}acetamide]
[2]
  solubility compared with Compound A: significantly less soluble; also recorded: much less soluble

## CC(=O)Nc1cccc(-n2c(=O)n(C3CC3)c(=O)c3c(Nc4ccc(I)cc4F)n(C)c(=O)c(C)c32)c1 [Compound, N-{3-[3-cyclopropyl-5-(2-fluoro-4-iodo-phenylamino)-6,8-dimethyl-2,4,7-trioxo-3,4,6,7-tetrahydro-2H-pyrido[4,3-d]pyrimidin-1-yl]phenyl}acetamide]
[3]; Day 15
  dose proportionality of mean AUC(0-tau) and Cmax: generally increased in a dose-proportional manner
[3]; Day 15, repeat dosing of 2.5 mg, CV 54%
  Mean trough concentration: 16.8 ng/mL
[3]; calculated based on the accumulation ratio
  effective half-life (T½, eff): approximately 5 days
[3]; repeat daily dosing, recommended dose of 2 mg QD
  mean accumulation ratio: 6.6
[4]; dog, 3 weeks
  maximum tolerated dose (MTD): 0.5 mg/m^2/day
[4]; [7]
  AUC: 60.2 ng·h/mL
  Cmax at 3 weeks: 3.33 ng/mL
[4]; [8]
  AUC: 126 ng·h/mL
  Cmax at 3 weeks: 6.28 ng/mL
[4]; [9]
  AUC: 211 ng·h/mL
  Cmax at 3 weeks: 13 ng/mL
[4]; [10]
  AUC: 460 ng·h/mL
  Cmax at 3 weeks: 29.4 ng/mL
[4]; [11]
  AUC: 102 ng·h/mL
  Cmax: 5.3 ng/mL
[4]; [12]
  AUC: 158 ng·h/mL
  Cmax: 8.03 ng/mL
[4]; female, beagle, dog, 0.3 mg/m2
  Cmax: 7.19 ng/mL
[4]; female, beagle, dog, 0.4 mg/m2
  AUC: 211 ng·h/mL
  Cmax: 11.6 ng/mL
[4]; female, beagle, dog, 0.5 mg/m2
  AUC: 205 ng·h/mL
  Cmax: 12.3 ng/mL
[4]; [13]
  AUC: 35 ng·h/mL
  Cmax: 1.78 ng/mL
[4]; [14]
  AUC: 64.2 ng·h/mL
  Cmax at 3 weeks: 3.5 ng/mL
[4]; [15]
  AUC: 129 ng·h/mL
  Cmax at 3 weeks: 7.78 ng/mL
[4]; [16]
  AUC: 218 ng·h/mL
  Cmax at 3 weeks: 13.3 ng/mL
[4]; [17]
  AUC: 95.4 ng·h/mL
  Cmax: 5.34 ng/mL
[4]; [18]
  AUC: 277 ng·h/mL
  Cmax: 15.4 ng/mL
[4]; male, beagle, dog, 0.5 mg/m2
  AUC: 159 ng·h/mL
  Cmax: 9.37 ng/mL
[4]; male, beagle, dog, 0.75 mg/m2
  AUC: 282 ng·h/mL
  Cmax: 19 ng/mL
[4]; rat, 3 weeks, two doses marked MTD, sex shown by bolding only (lost)
  maximum tolerated dose (MTD): 0.5 mg/m^2/day and 1 mg/m^2/day
[4]; rat, 13 weeks
  maximum tolerated dose (MTD): 0.25 mg/m^2/day
[5]; single dose Day 1, lower than proportional at 8 mg, greater at 10 mg
  dose proportionality of AUC (0-24) and Cmax: dose proportional up to 6 mg
[5]; single oral dose Day 1, fasting, 0.25 mg, individual (N 1)
  Tmax: 1.03 h
[5]; [19]
  Cmax: 23.2 ng/mL
  AUC(0-t): 197 ng·h/mL
  concentration at 24 h: 6.58 ng/mL
[5]; plasma, oral, Day 1, fasting, 6.0 mg loading dose, median, N 10, read-out: Tmax
  Tmax: 1.5 h
[5]; [20]
  Cmax: 14.9 ng/mL
  AUC(0-t): 161 ng·h/mL
  concentration at 24 h: 5.81 ng/mL
[5]; plasma, oral, Day 1, fasting, 8.0 mg loading dose, median, N 7, read-out: Tmax
  Tmax: 3 h
[5]; [21]
  Cmax: 78.7 ng/mL
  AUC(0-t): 884 ng·h/mL
  concentration at 24 h: 25.5 ng/mL
[5]; plasma, oral, Day 1, fasting, 10.0 mg loading dose, median, N 4, read-out: Tmax
  Tmax: 1.5 h
[5]; plasma, oral, single dose Day 1, range across doses, read-out: Median Tmax
  Tmax: 1 to 3 h
[5]; [22]
  Cmax: 0.34 ng/mL
  concentration at 24 h: 0 ng/mL
[5]; [23]
  Cmax: 6.83 ng/mL
  AUC(0-t): 56.2 ng·h/mL
  concentration at 24 h: 1.49 ng/mL
[5]; plasma, single oral dose Day 1, fasting, 2.0 mg, median, N 3, read-out: Tmax
  Tmax: 1.5 h
[5]; [24]
  Cmax: 9.68 ng/mL
  AUC(0-t): 71.1 ng·h/mL
  concentration at 24 h: 1.81 ng/mL
[5]; plasma, single oral dose Day 1, fasting, 2.5 mg, median, N 9, read-out: Tmax
  Tmax: 1.5 h
[5]; [25]
  Cmax: 11.5 ng/mL
  AUC(0-t): 81.4 ng·h/mL
  concentration at 24 h: 3.35 ng/mL
[5]; plasma, single oral dose Day 1, fasting, 3.0 mg, median, N 12, read-out: Tmax
  Tmax: 1.25 h
[5]; [26]
  Cmax: 27.1 ng/mL
  AUC(0-t): 223 ng·h/mL
  concentration at 24 h: 8.77 ng/mL
clinical; both, oral, 2 mg
  AUC: 360 ng·h/mL
  Cmax: 23.3 ng/mL
clinical; po, 0.25 mg
  AUC(0-t): 31.1 ng·h/mL
  Cmax: 2.08 ng/mL
  Tmax: 1.5 h
  concentration at 24 h: 1.16 ng/mL
clinical; po, 2 mg
  AUC(0-t): 376 ng·h/mL
  Cmax: 23 ng/mL
  Tmax: 1.75 h
  concentration at 24 h: 12.3 ng/mL
  half-life: 101 h
clinical; po, 2.5 mg
  AUC(0-t): 448 ng·h/mL
  Cmax: 26.7 ng/mL
  Tmax: 2 h
  concentration at 24 h: 17 ng/mL
  half-life: 127 h
clinical; po, 3 mg
  AUC(0-t): 575 ng·h/mL
  Cmax: 35.8 ng/mL
  Tmax: 2.1 h
  concentration at 24 h: 19.5 ng/mL
  half-life: 110 h
[6]; 13 weeks, oral
  No Observed Adverse Effect Level (NOAEL): 0.45 mg/m^2/day
[6]; female, 0.15 mg/m2
  AUC: 51.8 ng·h/mL
  Cmax: 2.71 ng/mL
[6]; female, 0.3 mg/m2
  Cmax: 7.24 ng/mL
[6]; female, 0.45 mg/m2/day
  AUC: 150 ng·h/mL
  Cmax: 9.78 ng/mL
[6]; male, 0.15 mg/m2
  AUC: 45.6 ng·h/mL
  Cmax: 2.32 ng/mL
[6]; male, 0.3 mg/m2
  AUC: 95.5 ng·h/mL
  Cmax: 5.15 ng/mL
[6]; male, 0.45 mg/m2/day
  AUC: 128 ng·h/mL
  Cmax: 8.42 ng/mL
